Reference: ChEMBL document CHEMBL5465560, “Selectivity Literature for EUbOPEN Chemogenomic Library” (2024)

Legend:
[1] = test system: Epidermal growth factor receptor (Homo sapiens), P00533 [G719S]; details: at 10 µM
[2] = target: Mitogen-activated protein kinase kinase kinase kinase 1 (Homo sapiens) (UniProt Q92918); experiment: Selectivity interaction (KinomeScan (DiscoverX)) EUB0000695a MAP4K1; details: at 100 nM
[3] = target: SRSF protein kinase 3 (Homo sapiens) (UniProt Q9UPE1); experiment: Selectivity interaction (KinomeScan (DiscoverX)) EUB0000666a SRPK3; details: at 10 µM
[4] = target: T1, Mitogen-activated protein kinase kinase kinase 5 (Homo sapiens) (UniProt Q99683); details: at 10 µM
T1 sequence (whole entry): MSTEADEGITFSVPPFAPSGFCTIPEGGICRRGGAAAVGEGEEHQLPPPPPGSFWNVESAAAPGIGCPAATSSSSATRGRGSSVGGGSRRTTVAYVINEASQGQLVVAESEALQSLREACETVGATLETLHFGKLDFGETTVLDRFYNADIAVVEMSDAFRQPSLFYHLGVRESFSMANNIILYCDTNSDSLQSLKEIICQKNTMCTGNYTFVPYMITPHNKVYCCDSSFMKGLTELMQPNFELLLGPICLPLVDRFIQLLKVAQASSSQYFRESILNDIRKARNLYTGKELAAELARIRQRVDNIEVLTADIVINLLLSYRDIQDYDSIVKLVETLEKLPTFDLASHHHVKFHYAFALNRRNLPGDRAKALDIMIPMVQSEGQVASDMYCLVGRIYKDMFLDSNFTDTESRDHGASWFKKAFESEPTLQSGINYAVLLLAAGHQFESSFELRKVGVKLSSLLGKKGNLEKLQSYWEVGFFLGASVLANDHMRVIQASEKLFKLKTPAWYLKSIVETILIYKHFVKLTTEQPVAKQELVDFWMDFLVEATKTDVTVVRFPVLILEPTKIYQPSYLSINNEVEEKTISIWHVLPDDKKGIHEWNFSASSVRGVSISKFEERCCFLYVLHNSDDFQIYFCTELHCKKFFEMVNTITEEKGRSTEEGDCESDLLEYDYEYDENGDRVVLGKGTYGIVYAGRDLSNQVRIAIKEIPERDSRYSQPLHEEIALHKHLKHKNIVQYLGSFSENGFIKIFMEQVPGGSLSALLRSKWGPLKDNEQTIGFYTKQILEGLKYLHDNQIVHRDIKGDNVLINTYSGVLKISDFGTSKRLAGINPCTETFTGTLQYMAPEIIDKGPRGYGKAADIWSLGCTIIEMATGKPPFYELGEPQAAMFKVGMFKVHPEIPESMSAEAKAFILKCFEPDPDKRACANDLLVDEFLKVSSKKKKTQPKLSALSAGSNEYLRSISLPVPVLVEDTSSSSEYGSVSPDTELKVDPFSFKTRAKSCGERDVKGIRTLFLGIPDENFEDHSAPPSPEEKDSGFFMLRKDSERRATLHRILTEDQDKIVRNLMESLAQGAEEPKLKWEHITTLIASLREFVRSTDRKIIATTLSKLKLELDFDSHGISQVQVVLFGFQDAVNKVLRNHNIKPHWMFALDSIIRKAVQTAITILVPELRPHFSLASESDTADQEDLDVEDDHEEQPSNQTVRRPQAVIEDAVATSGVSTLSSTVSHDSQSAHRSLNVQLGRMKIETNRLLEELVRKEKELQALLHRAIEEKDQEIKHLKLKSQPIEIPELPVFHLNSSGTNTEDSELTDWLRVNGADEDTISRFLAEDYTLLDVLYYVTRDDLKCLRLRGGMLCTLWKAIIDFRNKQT

[5] = target: RAC-gamma serine/threonine-protein kinase (Homo sapiens, UniProt Q9Y243); experiment: Selectivity interaction (Upstate Kinase Profiler service (Millipore)) EUB0000056c AKT3; details: at 1 µM
[6] = target: Phosphatidylinositol 4-kinase beta (Homo sapiens, UniProt Q9UBF8); experiment: Selectivity interaction (ActivX KiNativ screen (ex vivo kinase selectivity in human PBMCs)) EUB0001619a PI4KB; format: cell-based; details: PBMC, at 1 µM
[7] = target: Protein arginine N-methyltransferase 8 (Homo sapiens, UniProt Q9NR22); experiment: Selectivity interaction (Methyltransferase screen (Scintillation proximity assays)) EUB0000255b PRMT8
[8] = target: Tyrosine-protein kinase Fgr (Homo sapiens) (UniProt P09769); experiment: Selectivity interaction (KinomeScan (DiscoverX)) EUB0000618a FGR; details: at 10 µM
[9] = target: Tyrosine-protein kinase Lck (Homo sapiens, UniProt P06239); experiment: Selectivity interaction (Panel of kinases, GPCRs, ion channels and transporters (enzymatic assay)) EUB0000266bCl LCK
[10] = target: Mitogen-activated protein kinase kinase kinase kinase 1 (Homo sapiens) (UniProt Q92918); experiment: Selectivity interaction (ActivX KiNativ screen (kinase selectivity in THP-1 cell lysates)) EUB0000639a MAP4K1; format: subcellular; details: lysate, at 0.01 µM
[11] = target: ALK tyrosine kinase receptor (Homo sapiens, UniProt Q9UM73); experiment: Selectivity interaction (KinomeScan (DiscoverX)) EUB0000655a ALK; details: at 10 µM
Aurora kinase B = Aurora kinase B (Homo sapiens, UniProt Q96GD4); experiment: Selectivity interaction (KinomeScan (DiscoverX)) EUB0000655a AURKB; details: at 10 µM
[12] = target: Ribosomal protein S6 kinase alpha-4 (Homo sapiens) (UniProt O75676); experiment: Selectivity interaction (KinomeScan (DiscoverX)) EUB0000655a RPS6KA4; details: at 10 µM
[13] = target: cAMP-dependent protein kinase catalytic subunit beta (Homo sapiens) (UniProt P22694); experiment: Selectivity interaction (KinomeScan (DiscoverX)) EUB0000092b PRKACB; details: at 10 µM
[14] = target: Serine/threonine-protein kinase/endoribonuclease IRE1 (Homo sapiens) (UniProt O75460); experiment: Selectivity interaction (KinomeScan (DiscoverX)) EUB0000092b ERN1; details: at 10 µM
[15] = target: Tyrosine-protein kinase Fgr (Homo sapiens) (UniProt P09769); experiment: Selectivity interaction (Ambit KINOMEscan and KiNATiv profiling in Jurkat cells) EUB0000090b FGR; format: cell-based; details: at 1 µM

Mitogen-activated protein kinase kinase kinase kinase 1 (Homo sapiens), sequence (Q92918 whole entry, looked up): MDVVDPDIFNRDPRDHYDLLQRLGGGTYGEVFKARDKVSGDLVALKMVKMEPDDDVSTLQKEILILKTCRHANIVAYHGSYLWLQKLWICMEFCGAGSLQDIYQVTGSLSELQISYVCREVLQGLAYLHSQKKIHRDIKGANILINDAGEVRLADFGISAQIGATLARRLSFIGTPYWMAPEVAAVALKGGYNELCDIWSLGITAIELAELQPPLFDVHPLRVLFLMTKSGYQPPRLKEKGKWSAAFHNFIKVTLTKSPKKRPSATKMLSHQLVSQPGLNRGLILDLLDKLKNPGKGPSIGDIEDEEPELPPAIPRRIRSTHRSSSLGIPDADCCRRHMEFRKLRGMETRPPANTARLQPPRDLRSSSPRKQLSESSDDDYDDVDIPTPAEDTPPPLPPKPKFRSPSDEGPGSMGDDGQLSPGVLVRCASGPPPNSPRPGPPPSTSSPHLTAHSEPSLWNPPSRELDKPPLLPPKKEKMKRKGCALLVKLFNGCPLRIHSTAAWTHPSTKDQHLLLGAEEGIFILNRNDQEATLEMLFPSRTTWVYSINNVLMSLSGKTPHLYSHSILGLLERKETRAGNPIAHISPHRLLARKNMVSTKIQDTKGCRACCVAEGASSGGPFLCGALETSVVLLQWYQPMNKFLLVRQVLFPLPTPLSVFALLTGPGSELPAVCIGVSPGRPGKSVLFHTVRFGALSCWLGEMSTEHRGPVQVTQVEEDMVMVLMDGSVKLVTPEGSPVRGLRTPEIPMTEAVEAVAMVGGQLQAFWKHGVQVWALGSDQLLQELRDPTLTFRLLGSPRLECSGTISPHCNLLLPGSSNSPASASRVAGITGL
Tyrosine-protein kinase Fgr (Homo sapiens), sequence (P09769 2-529 limits assumed): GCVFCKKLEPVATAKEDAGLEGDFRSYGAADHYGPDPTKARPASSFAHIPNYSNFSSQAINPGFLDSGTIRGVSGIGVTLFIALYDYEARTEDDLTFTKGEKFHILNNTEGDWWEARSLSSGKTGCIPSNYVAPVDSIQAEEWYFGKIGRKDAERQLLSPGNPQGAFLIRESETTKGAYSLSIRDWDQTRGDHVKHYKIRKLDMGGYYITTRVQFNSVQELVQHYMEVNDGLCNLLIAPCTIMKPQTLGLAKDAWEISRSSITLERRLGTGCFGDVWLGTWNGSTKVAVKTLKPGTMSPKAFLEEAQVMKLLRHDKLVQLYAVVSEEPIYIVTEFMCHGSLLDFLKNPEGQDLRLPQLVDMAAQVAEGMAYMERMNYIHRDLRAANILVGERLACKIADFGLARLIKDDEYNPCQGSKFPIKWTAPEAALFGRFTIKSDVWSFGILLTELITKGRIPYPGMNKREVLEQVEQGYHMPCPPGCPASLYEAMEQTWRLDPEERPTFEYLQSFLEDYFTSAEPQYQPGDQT
Protein arginine N-methyltransferase 8, sequence (Q9NR22 2-394 limits assumed): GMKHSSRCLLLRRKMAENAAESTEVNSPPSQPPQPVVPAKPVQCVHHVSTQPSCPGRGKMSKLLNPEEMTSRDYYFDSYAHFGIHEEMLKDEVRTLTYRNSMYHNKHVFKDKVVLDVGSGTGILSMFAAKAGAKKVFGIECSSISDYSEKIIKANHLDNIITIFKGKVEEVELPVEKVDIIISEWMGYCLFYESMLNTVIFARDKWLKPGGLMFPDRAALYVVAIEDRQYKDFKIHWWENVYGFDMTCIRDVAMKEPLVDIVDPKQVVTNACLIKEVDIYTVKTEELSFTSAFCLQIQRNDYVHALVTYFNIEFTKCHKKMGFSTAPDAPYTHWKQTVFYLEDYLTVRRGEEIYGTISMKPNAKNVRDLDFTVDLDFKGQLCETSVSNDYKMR
Phosphatidylinositol 4-kinase beta, sequence (Q9UBF8 2-816 limits assumed): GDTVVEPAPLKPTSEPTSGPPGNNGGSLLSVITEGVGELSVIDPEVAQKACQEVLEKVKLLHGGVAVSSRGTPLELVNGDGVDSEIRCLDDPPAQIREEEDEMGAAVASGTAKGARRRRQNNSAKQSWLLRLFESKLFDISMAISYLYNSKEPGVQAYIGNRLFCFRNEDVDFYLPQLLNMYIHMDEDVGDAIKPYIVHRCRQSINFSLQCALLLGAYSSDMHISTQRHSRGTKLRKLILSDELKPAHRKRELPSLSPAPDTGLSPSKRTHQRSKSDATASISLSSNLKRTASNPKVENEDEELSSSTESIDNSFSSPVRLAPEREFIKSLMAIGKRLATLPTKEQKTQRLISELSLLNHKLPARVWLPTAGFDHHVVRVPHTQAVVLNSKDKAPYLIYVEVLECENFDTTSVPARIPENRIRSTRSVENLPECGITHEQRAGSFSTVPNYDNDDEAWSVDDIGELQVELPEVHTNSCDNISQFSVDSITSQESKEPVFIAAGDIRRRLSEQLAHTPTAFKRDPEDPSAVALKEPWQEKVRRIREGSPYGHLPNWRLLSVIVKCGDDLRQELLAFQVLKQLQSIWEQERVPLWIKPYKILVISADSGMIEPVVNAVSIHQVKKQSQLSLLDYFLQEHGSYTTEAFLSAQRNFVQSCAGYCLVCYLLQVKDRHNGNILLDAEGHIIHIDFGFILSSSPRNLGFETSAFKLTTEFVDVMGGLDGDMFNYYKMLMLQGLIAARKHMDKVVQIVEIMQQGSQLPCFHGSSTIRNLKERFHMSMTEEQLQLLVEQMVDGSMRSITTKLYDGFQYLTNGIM
Ribosomal protein S6 kinase alpha-4 (Homo sapiens), sequence (O75676 whole entry, looked up): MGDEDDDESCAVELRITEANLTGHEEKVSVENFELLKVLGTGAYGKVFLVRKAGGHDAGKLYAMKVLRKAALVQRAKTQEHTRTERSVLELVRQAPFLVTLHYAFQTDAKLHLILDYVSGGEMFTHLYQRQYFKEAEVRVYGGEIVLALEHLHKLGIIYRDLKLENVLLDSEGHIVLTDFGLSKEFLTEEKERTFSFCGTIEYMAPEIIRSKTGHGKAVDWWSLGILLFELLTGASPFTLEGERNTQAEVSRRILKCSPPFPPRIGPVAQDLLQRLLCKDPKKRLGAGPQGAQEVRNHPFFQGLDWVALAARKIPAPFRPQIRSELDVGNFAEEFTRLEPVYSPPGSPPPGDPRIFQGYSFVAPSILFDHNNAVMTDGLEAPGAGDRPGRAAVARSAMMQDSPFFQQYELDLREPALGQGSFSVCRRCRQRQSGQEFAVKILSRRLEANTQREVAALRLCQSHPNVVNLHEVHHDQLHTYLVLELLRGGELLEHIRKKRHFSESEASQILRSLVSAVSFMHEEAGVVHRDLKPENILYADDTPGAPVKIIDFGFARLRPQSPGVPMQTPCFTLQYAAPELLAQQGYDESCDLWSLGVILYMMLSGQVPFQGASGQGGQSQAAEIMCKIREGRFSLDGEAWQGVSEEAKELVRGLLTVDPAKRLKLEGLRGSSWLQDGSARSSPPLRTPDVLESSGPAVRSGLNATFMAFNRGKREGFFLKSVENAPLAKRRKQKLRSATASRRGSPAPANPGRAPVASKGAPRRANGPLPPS
Aurora kinase B, sequence (Q96GD4 whole entry): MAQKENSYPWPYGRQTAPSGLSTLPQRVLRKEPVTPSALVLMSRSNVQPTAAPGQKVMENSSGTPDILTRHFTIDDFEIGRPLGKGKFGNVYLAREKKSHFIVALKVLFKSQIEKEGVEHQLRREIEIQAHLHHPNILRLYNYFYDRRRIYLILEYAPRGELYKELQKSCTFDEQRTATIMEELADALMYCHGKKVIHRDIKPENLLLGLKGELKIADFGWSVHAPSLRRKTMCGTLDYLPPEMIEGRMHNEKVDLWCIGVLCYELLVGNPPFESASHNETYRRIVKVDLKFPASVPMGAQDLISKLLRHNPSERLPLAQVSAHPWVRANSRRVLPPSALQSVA
Tyrosine-protein kinase Lck, sequence (P06239 2-509 limits assumed): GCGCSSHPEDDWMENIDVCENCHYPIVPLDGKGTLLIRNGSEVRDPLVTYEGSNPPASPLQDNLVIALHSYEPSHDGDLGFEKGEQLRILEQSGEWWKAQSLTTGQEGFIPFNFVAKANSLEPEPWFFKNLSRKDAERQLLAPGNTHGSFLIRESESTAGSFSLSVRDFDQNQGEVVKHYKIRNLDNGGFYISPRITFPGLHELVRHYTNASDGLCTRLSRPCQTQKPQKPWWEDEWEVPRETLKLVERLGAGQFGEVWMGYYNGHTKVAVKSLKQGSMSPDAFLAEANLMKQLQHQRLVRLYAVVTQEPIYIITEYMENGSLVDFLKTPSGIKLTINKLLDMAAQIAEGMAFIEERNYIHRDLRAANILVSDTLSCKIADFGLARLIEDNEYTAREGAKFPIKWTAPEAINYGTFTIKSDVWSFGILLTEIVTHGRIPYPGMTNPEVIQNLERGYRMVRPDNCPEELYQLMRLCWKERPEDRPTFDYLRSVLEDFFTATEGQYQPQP
SRSF protein kinase 3 (Homo sapiens), sequence (Q9UPE1 whole entry): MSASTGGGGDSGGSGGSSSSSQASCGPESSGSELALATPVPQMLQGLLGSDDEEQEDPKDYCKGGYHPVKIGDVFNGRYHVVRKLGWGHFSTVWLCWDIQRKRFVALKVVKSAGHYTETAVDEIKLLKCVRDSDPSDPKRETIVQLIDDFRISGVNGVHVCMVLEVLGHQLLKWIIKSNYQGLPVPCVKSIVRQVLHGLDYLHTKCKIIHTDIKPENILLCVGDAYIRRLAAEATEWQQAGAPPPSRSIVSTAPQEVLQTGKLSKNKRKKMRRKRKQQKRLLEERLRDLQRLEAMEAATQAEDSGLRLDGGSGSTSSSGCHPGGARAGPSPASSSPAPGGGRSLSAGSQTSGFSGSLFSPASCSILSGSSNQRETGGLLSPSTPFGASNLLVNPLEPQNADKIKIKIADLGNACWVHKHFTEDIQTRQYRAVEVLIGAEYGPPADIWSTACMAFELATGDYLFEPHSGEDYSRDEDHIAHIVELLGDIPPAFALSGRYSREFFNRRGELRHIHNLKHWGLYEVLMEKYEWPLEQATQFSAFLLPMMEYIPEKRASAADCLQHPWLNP

## COCC(=O)NC/C=C/c1ccc2ncnc(Nc3ccc(Oc4ccc(C)nc4)c(C)c3)c2c1 [CP-724714]
[1]
  % of control: 0%

## Cc1cc(F)c(C(=O)Nc2cccc(-c3nncn3C(C)C)n2)cc1-n1cnc(C2CC2)c1
[2]
  % of control: 97%

## O=C(NOC[C@H](O)CO)c1ccc(F)c(F)c1Nc1ccc(I)cc1F
[3]
  % of control: 100%

## Cc1cc([C@@H](C)Nc2ccccc2C(=O)O)c2nc(N3CCOCC3)cc(=O)n2c1 [AZD-6482]
[4]
  % of control: 100%

## Cc1ccc(-c2ccc3c(ccc4sc5c(c43)NC[C@@H](C)NC5=O)n2)cn1
[5]
  % of inhibition: 0%

## N#Cc1cccc(-c2c[nH]c3ncnc(N4CCOCC4)c23)c1
[6]
  % of inhibition: 5%

## COCCN1CCC(c2cc(CN(C)C(=O)c3cccc(Oc4ccccc4)c3)ccn2)CC1
[7]; at 1 µM
  % activity: 50%
[7]; at 10 µM
  % activity: > 90%

## O[C@H]1CC[C@H](Nc2ncc3nc(Nc4c(F)cc(F)cc4F)n([C@H]4CCOC4)c3n2)CC1
[8]
  % of control: 84%

## CCn1c(-c2nc3cc(C(=O)N4CCCC(N)C4)ccc3n2C)cc2ccccc21 (configuration not stated)
[9]
  pXC50: < 4.5 M

## CC[C@@H]1[C@H](F)C(=O)N[C@@H]1COc1nccc2cc(C(N)=O)c(OC)cc12 [ZIMLOVISERTIB]
[10]
  % of inhibition: 6.1%

## CN(C)CCOc1ccc(-c2nc(-c3ccncc3)c(-c3ccc4c(c3)CC/C4=N\O)[nH]2)cc1
[11]
  % of control: 45%
Aurora kinase B
  % of control: 100%
[12]
  % of control: 81%

## CCC(=O)N1CCN(c2ccc(-n3c(=O)ccc4cnc5ccc(-c6cnc7ccccc7c6)cc5c43)cc2C(F)(F)F)CC1
[13]
  % of control: 100%
[14]
  % of control: 100%

## CN(C)C/C=C/C(=O)Nc1ccc(C(=O)N2CCCC(Nc3ncc(Cl)c(-c4c[nH]c5ccccc45)n3)C2)cc1 (configuration not stated)
[15]
  % of control: 92%
